Holding throughout (assay type): biochemical, human
Experiment [1] deals with plasma deficient in coagulation factor IX. Kind of experiment: Thrombin generation assay in plasma deficient in coagulation factor IX. The protocol:
(§1) The Calibrated Automated Thrombogram® assays the generation of thrombin in clotting plasma using a microtiter plate reading fluorometer (Fluoroskan Ascent, ThermoLab systems, Helsinki, Finland) and Thrombinoscope® software (Thrombinoscope BV, Maastricht, The Netherlands). The assay was carried out as described by Hemker et al. (Pathofysiol. IIaemost. Thromb. 2003, 33, 4-15), and the Thrombinoscope® manual. Coagulation was triggered by recalcification in the presence of 1 or 5 pM recombinant human tissue factor (Innovin®, Siemens, Marburg, Germany), 4 μM phospholipids, and 417 μM fluorogenic substrate Z-Gly-Gly-Arg-AMC (Bachem, Bubendorf, Switzerland). Fluorescence was monitored using the Fluoroskan Ascent fluorometer (ThermoLabsystems, Helsinki, Finland), and the lag time, peak thrombin, velocity index and area under the curve (ETP) were calculated using the Thrombinoscope® software (Thrombinoscope BV).

Experiment [2] concerns thrombin generation in pooled normal plasma. The experiment is described as follows: Calibrated Automated Thrombogram thrombin generation assay in pooled normal plasma. Particulars: no anticoagulant; cyclodextrin 100 μM unless otherwise indicated; 1 pM TF. The protocol:
(§2) FIGS. 3-8, 12, 14-19 and 22-27: Pooled normal plasma was spiked with cyclodextrins (100 μM, unless otherwise indicated) and anticoagulants. The concentrations of the anticoagulants were 100 ng/ml for dabigatran (A), 100 ng/ml for rivaroxaban (B), 60 ng/ml for apixaban (C), 60 ng/ml for edoxaban (D). The plasmas were subjected to thrombin generation analysis as described in the Materials and Methods section with 1 pM tissue factor (TF) as initiator of coagulation.
as §1
Thrombin generation analyses were performed in pooled normal plasma with and without the addition of anticoagulants.

In experiment [3] the test system is plasma deficient in coagulation factor VIII. Kind of experiment: Thrombin generation assay in plasma deficient in coagulation factor VIII. On the procedure:
FIG. 20: Plasma deficient in coagulation factor VIII was spiked with cyclodextrin OKL-1111 (A), OKL-1180 (B), and OKL-1187 (C) at the indicated concentrations.
as §1

Experiment [4] has as its system plasma of a hemophilia A patient containing anti-FVIII antibodies. Kind of experiment: Thrombin generation in plasma of a hemophilia A patient with anti-factor VIII antibodies. As to conditions: anti-FVIII antibodies 50 BU. On the procedure:
FIG. 28: Effect of OKL-1111 (A), OKL-1180 (B) and OKL-1187 (C) on coagulation in plasma of a hemophilia A patient with anti-factor VIII antibodies. BU=Bethesda Units.
as §1
The patient had developed antibodies against factor VIII prior to plasma withdrawal. The plasma contained high levels of anti-FVIII antibodies (50 BU).

Experiment [5] concerns thrombin generation in pooled normal plasma spiked with anticoagulants. Kind of experiment: Thrombin generation assay in pooled normal plasma spiked with anticoagulants. Particulars: cyclodextrin 100 μM, 1 pM TF. The protocol: as §2
FIG. 9: Pooled normal plasma was spiked with OKL-1111 (100 μM, unless otherwise indicated (A)) and anticoagulants (B-E). The concentrations of the anticoagulants were 100 ng/ml for dabigatran (B), 100 ng/ml for rivaroxaban (C), 60 ng/ml for apixaban (D), 60 ng/ml for edoxaban (E). The plasmas were subjected to thrombin generation analysis as described in the Materials and Methods section with 1 pM tissue factor (TF) as initiator of coagulation.
FIG. 10: Pooled normal plasma was spiked with OKL-1111 (100 μM) and anticoagulants (A-F). The concentrations of the anticoagulants were 2 μg/ml for fondaparinux (A), 0.4 U/ml for nadroparin (B), 0.1 U/ml for tinzaparin (C), 0.03 U/ml for unfractionated heparin (UFH) (D), 0.5 U/ml for hirudin (E) and 10 μg/ml for bivalirudin (F). The plasmas were subjected to thrombin generation analysis as described in the Materials and Methods section with 1 pM tissue factor (TF) as initiator of coagulation.
as §1

Take `O=C(O)CCCCCCCSCC1OC2OC3C(CSCCCCCCCC(=O)O)OC(OC4C(CSCCCCCCCC(=O)O)OC(OC5C(CSCCCCCCCC(=O)O)OC(OC6C(CSCCCCCCCC(=O)O)OC(OC7C(CSCCCCCCCC(=O)O)OC(OC8C(CSCCCCCCCC(=O)O)OC(OC1C(O)C2O)C(O)C8O)C(O)C7O)C(O)C6O)C(O)C5O)C(O)C4O)C(O)C3O` (centres unmarked) [OKL-1180]: in experiment [1], the “procoagulant activity in factor IX deficient plasma” value is “procoagulant activity”. In experiment [2], the “procoagulant effect in normal plasma” value is recorded as “procoagulant activity”. The “procoagulant effect in factor VIII deficient plasma” value in experiment [3] is “procoagulant effects”. The “thrombin generation in hemophilia A patient plasma” value in experiment [4] is given as “concentration-dependently stimulated thrombin generation”.
Turning to `O=C(O)CCCCCSCC1OC2OC3C(CSCCCCCC(=O)O)OC(OC4C(CSCCCCCC(=O)O)OC(OC5C(CSCCCCCC(=O)O)OC(OC6C(CSCCCCCC(=O)O)OC(OC7C(CSCCCCCC(=O)O)OC(OC1C(O)C2O)C(O)C7O)C(O)C6O)C(O)C5O)C(O)C4O)C(O)C3O` (stereo not drawn) [OKL-1187, Alpha-per-S—C6-acid], in experiment [2], the “procoagulant effect in normal plasma” value was “very strong procoagulant effect”. Besides, the “effect on the anticoagulant effect of apixaban” value in experiment [5] (apixaban 60 ng/ml) is given as “strongly antagonized”. Moreover, the “effect on the anticoagulant effect of dabigatran” value in experiment [5] (dabigatran 100 ng/ml) is recorded as “strongly antagonized”. The “effect on the anticoagulant effect of edoxaban” value in experiment [5] (edoxaban 60 ng/ml) is on record as “strongly antagonized”. The “effect on the anticoagulant effect of rivaroxaban” value in experiment [5] (rivaroxaban 100 ng/ml) is “strongly antagonized”. Also, the “procoagulant effect in factor VIII deficient plasma” value in experiment [3] is reported as “procoagulant effects”. In addition, in experiment [4], the “thrombin generation in hemophilia A patient plasma” value is recorded as “concentration-dependently stimulated thrombin generation”.

The values are drawn from US10813944B2, “Cyclodextrins as procoagulants” (STICHTING SANQUIN BLOEDVOORZIENING, priority 2016, dated 2020).
